From paper PMC11917140, “Mining the UniProtKB/Swiss‐Prot database for antimicrobial peptides” (Protein Science : A Publication of the Protein Society, 2025)
Like-named read-outs stand apart in the source and are kept apart here. Residues, ends and D or L forms follow the SMILES beside them. No end group written: not given here.

How the values were obtained:
[1] = test system: porcine red blood cells (RBCs); experiment: Hemolysis assay; assay type: cell-based, pig; settings: 1% porcine RBCs in RPMI, 37°C 30–45 min, absorbance 415 nm, tested 1–128 μg/mL, 2% Triton-X100 = 100%; three independent experiments in duplicate, one maximum and one minimum data point dropped
Procedure: Hemolysis experiments were performed to evaluate the toxicity of the selected peptides to RBCs. Whole blood from healthy donor pigs was purchased from Lampire Biological Laboratories (Pipersville, PA, USA), and RBCs were washed and isolated by centrifugation using Roswell Park Memorial Institute (RPMI) medium (Life Technologies, Grand Island, NY, USA). Peptides were suspended and serially diluted from 1280 to 10 μg/mL using RPMI medium in a 96‐well polypropylene microtiter plate, and then combined with 100 μL of the 1% RBC solution, providing a final AMP testing range of 128 to 1 μg/mL. Plates were centrifuged after an incubation at 37°C for 30–45 min, and 1/2 volume from each supernatant was transferred to a new 96‐well plate. The absorbance of the wells was measured at 415 nm utilizing the Cytation 5 Cell Imaging Multimode Reader (BioTek, CA, USA), and the peptide concentration that lysed 50% of the RBCs (HC50) was used to determine the hemolytic activity. Absorbance readings from wells containing RBCs treated with 11 μL of a 2% Triton‐X100 solution or RPMI medium (AMP solvent‐only) were used to define 100% and 0% hemolysis, respectively. We note that all centrifugation steps were performed at 500× g for 5 min in an Allegra‐6R centrifuge (Beckman Coulter, CA, USA).

[2] = test system: Escherichia coli ATCC 25922; assay type: cell-based
Procedure: (§1) To measure the antimicrobial activity of our selected putative AMPs in vitro, broth microdilution assays were conducted to determine the minimum inhibitory and minimum bactericidal concentrations (MICs and MBCs, respectively), as outlined by the Clinical and Laboratory Standards Institute [CLSI] ([2015]). The adaptations for testing cationic AMPs, as described previously (Wiegand et al., [2008]), were incorporated. The selected peptides were tested against laboratory isolates of E. coli 25922 and S. aureus 29213, which were purchased from the American Type Culture Collection (ATCC; Manassas, VA, USA). Bacteria from frozen stocks were streaked onto nonselective Columbia blood agar with 5% sheep blood (Oxoid) and incubated for 18–24 h at 37°C. To ensure the uniform colony health before the assay, 2–4 colonies were streaked onto a new agar plate and incubated for another 18–24 h at 37°C on the next day. To create a standardized bacterial inoculum, isolated colonies were suspended in Mueller‐Hinton Broth (MHB; Sigma‐Aldrich, St. Louis, MO, USA). The suspension was adjusted to an optical density of 0.08–0.1 at 600 nm, which corresponds to a 0.5 McFarland standard of approximately 1–2 × 10^8 colony‐forming units (CFU)/mL. The inoculum was then diluted 1:250, resulting in a final concentration of 5 ± 3 × 10^5 CFU/mL. The target bacterial density was confirmed by measuring the total viability counts from the final tested inoculum.
(§2) The selected putative AMPs were purchased from and synthesized by GenScript (Piscataway, NJ, USA) in lyophilized format. The peptides were stored at −20°C and were suspended in sterile ultrapure water prior to testing. A two‐fold serial dilution of 1280 to 2.5 μg/mL was prepared in sterile 96‐well polypropylene microtiter plates (Greiner Bio‐One #650261, Kremsmünster, Austria). Then, 100 μL of the standardized bacterial inoculum was added to each well, resulting in a final AMP testing range of 128 to 0.25 μg/mL. The MIC values were determined as the lowest peptide concentration in which no visible bacterial growth was observed after a 20–24 h incubation at 37°C. To determine the MBC values, well contents of the MIC and the two adjacent wells containing the two‐ and four‐fold higher peptide concentrations were plated onto nonselective nutrient agar. The concentration in which 99.9% of the inoculum was killed after an incubation for 24 h at 37°C was reported as the MBC.
(§3) In our tests, we used Ranatuerin‐4—a known AMP from the American bullfrog (Goraya et al., [1998]), and an in‐house peptide [TKPKG]3 (OT15) as the positive and negative control peptides, respectively. We note that OT15 was truncated and derived from a negative control peptide [TKPKG]4 (OT20), not antimicrobial but sharing similar characteristics to AMPs, used in previous studies (Horváti et al., [2017]).

[3] = test system: Staphylococcus aureus ATCC 29213; assay type: cell-based
Procedure: as §1, §2, §3

[4] = broth microdilution (CLSI, adapted for cationic AMPs), MHB, 5 ± 3 × 10^5 CFU/mL, 20–24 h at 37°C, tested 0.25–128 μg/mL, range from three independent experiments in duplicate, one maximum and one minimum data point dropped
[5] = concentration killing 99.9% of inoculum, plated on nutrient agar, 24 h at 37°C, range from three independent experiments in duplicate, one maximum and one minimum data point dropped

## ILDKVRLWLARIRLNLLKR [PlVi1]
[1]
  HC50 (concentration that lyses 50% of RBCs), porcine RBCs: > 128 µg/mL

## CSCC[C@H](NC(=O)[C@H](C)NC(=O)[C@H](CCC(=O)O)NC(=O)[C@H](Cc1c[nH]c2ccccc12)NC(=O)[C@H](CCCNC(=N)N)NC(=O)[C@@H](N)[C@@H](C)O)C(=O)N[C@@H](CCCCN)C(=O)N[C@@H](C)C(=O)N[C@@H](CCCCN)C(=O)N[C@@H](C)C(=O)N[C@H](C(=O)N[C@@H](CCC(=O)O)C(=O)N[C@@H](CC(C)C)C(=O)N[C@@H](CCCNC(=N)N)C(=O)N[C@H](C(=O)N[C@@H](CS)C(=O)N[C@@H](CS)C(=O)N[C@@H](C)C(=O)N[C@@H](CCCNC(=N)N)C(=O)N[C@@H](CCCNC(=N)N)C(=O)N[C@@H](CCCCN)C(=O)N[C@@H](CCCNC(=N)N)C(=O)O)C(C)C)[C@@H](C)O [HoSa2] (H-TRWEAMKAKATELRVCCARRKR-OH; N-terminus and C-terminus assumed)
[2]; ATCC 25922
  MIC, E. coli ATCC 25922: > 128 µg/mL
[2]; ATCC 25922, 24 h
  MBC, E. coli ATCC 25922: > 128 µg/mL
[3]; ATCC 29213
  MIC, S. aureus ATCC 29213: > 128 µg/mL
[3]; ATCC 29213, 24 h
  MBC, S. aureus ATCC 29213: > 128 µg/mL

## VMRSAGSRSSKR [OrSa6, putative AMP mined from UniProt Q5VRI5, Oryza sativa subsp. japonica]
[2]; [4]
  MIC, E. coli ATCC 25922: > 128 µg/mL
[2]; [5]
  MBC, E. coli ATCC 25922: > 128 µg/mL
[3]; [4]
  MIC, S. aureus ATCC 29213: > 128 µg/mL
[3]; [5]
  MBC, S. aureus ATCC 29213: > 128 µg/mL

## GRGRPKGRGRGRPRGRPRGSKR [GoGo1]
[2]; [4]
  MIC, E. coli ATCC 25922: 64 µg/mL
[3]; [4]
  MIC, S. aureus ATCC 29213: > 128 µg/mL
[3]; [5]
  MBC, S. aureus ATCC 29213: > 128 µg/mL
